Reference: patent US9284309B2, “Di- and tri-heteroaryl derivatives as inhibitors of protein aggregation” (Neuropore Therapies, Inc., priority 2012, dated 2016)

Biological target: T1, α-synuclein (Homo sapiens, UniProt P37840)
T1 construct: expressed in transfected cells
Test: calcein assay of membrane integrity (reversal of α-synuclein-mediated disruption of cell membranes, FLIPR)
Assay type: cell-based
Conditions: 0.01 μM test compound; neuronal cells infected with LV-α-synuclein, 24 h treatment in serum free media, calcein retention
Description: (b) Neuronal Activity/Integrity. Toxic aggregates of α-synuclein disrupt the integrity of cell membranes. The disruptive effect of α-synuclein and the ability of test compounds to reverse the α-synuclein-mediated disruption of cell membranes are measured using calcein. Calcein is a fluorescent marker that is retained in healthy cells but is not retained in cells with diminished cellular integrity. To ascertain the effects on neuronal activity, cells are infected with LV-α-synuclein for 24 h, treated with test compound at a range of concentrations, for example 0.01-10 μM, for 24 h in serum free media, loaded with Fluo-4 or calcein, and analyzed by FLIPR assay to determine Ca^2+ and calcein levels. […] Test compounds are evaluated for the ability to restore concentrations of Ca^2+ to those in cells not infected with LV-α-synuclein. […] Test compounds are evaluated, in a concentration-dependent manner, for their ability to reverse the effect of α-synuclein on levels of calcein.

| Percent reversal of α-Syn mediated disruption of cell integrity [%] | Structure (SMILES) |
| --- | --- |
| 135 | CCCCNNC(=O)C(Cc1c[nH]c2ccccc12)NC(=O)c1cnc(N2CCN(C)CC2)s1 (stereo not drawn) [Example 8, N-(1-(2-butylhydrazinyl)-3-(1H-indol-3-yl)-1-oxopropan-2-yl)-2-(4-methylpiperazin-1-yl)thiazole-5-carboxamide] |
| 189 | CCCCNC(=N)C(Cc1c[nH]c2ccccc12)NC(=O)c1cnc(N2CCN(C)CC2)s1 (stereo not drawn) [Example 7, N-(1-(butylamino)-1-imino-3-(1H-indol-3-yl)propan-2-yl)-2-(4-methylpiperazin-1-yl)thiazole-5-carboxamide] |
| 110 | CCCCn1nnc(C(Cc2c[nH]c3ccccc23)NC(=O)c2cnc(N3CCN(C)CC3)s2)n1 (stereo not drawn) [Example 5, N-(1-(2-butyl-2H-tetrazol-5-yl)-2-(1H-indol-3-yl)ethyl)-2-(4-methylpiperazin-1-yl)thiazole-5-carboxamide] |
| 187 | CCCc1nnc(C(Cc2c[nH]c3ccccc23)NC(=O)c2cnc(N3CCN(C)CC3)s2)s1 (stereo not drawn) [Example 9, N-(2-(1H-indol-3-yl)-1-(5-propyl-1,3,4-thiadiazol-2-yl)ethyl)-2-(4-methylpiperazin-1-yl)thiazole-5-carboxamide] |
| 137 | CCc1csc(C(Cc2c[nH]c3ccccc23)NC(=O)c2cnc(N3CCN(C)CC3)s2)n1 (stereo not drawn) [Example 6, N-(1-(4-ethylthiazol-2-yl)-2-(1H-indol-3-yl)ethyl)-2-(4-methylpiperazin-1-yl)thiazole-5-carboxamide] |
| 115 | CCCc1nnc(C(Cc2c[nH]c3ccccc23)NC(=O)c2cnc(N3CCN(C)CC3)s2)[nH]1 (stereo not drawn) [Example 10, N-(2-(1H-indol-3-yl)-1-(5-propyl-4H-1,2,4-triazol-3-yl)ethyl)-2-(4-methylpiperazin-1-yl)thiazole-5-carboxamide] |
